Measured values from patent publication US20110112282A1, “IDO INHIBITORS AND THERAPEUTIC USES THEREOF” (priority 2008, published 2011).

Target: purified recombinant IDO (Homo sapiens, UniProt P14902)
Assay: Enzymatic IDO inhibition assay (Takikawa et al., modified; kynurenine by HPLC)
Type: biochemical
Conditions: result in words; oxidized dimeric analogues
Description: The enzymatic inhibition assays were performed as described by Takikawa et al. [Takikawa, O.; Kuroiwa, T.; Yamazaki, F.; Kido, R. J Biol Chem, 1988, 263, 2041-2048.] with some modifications. Briefly, the reaction mixture (100 μl) contained potassium phosphate buffer (100 mM, pH 6.5) ascorbic acid (20 mM), catalase (200 units/ml), methylene blue (10 μM), purified recombinant IDO (2 ng/μl), and L-Trp (200 μM). The inhibitors were serially diluted ranging from 0.1 to 1000 μM. The reaction was carried out at 37° C. for 60 min and stopped by the addition of 30% (w/v) trichloroacetic acid (40 μl). To convert the product of Trp dioxygenation by IDO, N-formylkynurenine, to spectroscopically detectable kynurenine, the tubes were incubated at 50° C. for 30 min, followed by a centrifugation at 10000 g for 20 min. Lastly, 100 μl of supernatant from each probe was transfered to another tube for HPLC analysis. The mobile phase for HPLC measurements consisted of 50% sodium citrate buffer (40 mM, pH 2.25) and 50% methanol with 400 μM SDS. The flow rate through the S5-ODS1 column was chosen to be 1 ml/min, and kynurenine was detected at a wavelength of 365 nm.

purified recombinant IDO, sequence (P14902 whole entry): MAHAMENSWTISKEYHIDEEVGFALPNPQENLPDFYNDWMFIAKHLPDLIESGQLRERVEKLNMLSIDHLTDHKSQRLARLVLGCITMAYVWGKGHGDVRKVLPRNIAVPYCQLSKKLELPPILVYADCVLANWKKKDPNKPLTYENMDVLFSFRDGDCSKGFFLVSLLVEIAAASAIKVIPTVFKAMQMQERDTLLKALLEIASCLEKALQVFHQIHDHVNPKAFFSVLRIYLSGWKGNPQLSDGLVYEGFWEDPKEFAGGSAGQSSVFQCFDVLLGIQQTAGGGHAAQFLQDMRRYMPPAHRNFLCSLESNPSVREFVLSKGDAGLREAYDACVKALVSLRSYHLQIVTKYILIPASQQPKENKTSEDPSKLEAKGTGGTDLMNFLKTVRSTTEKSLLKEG

| SMILES | activity in vitro |
| --- | --- |
| CC(C)/C=C1/C=C(C2=C/C(=N\C(C)C)c3ccccc3C2=O)C(=O)c2ccccc21 [Example 23] | excellent activity |
| CCC(CC)CC1C=C(C2=CC(CC(CC)CC)c3ccccc3C2=O)C(=O)c2ccccc21 (centres unmarked) [Example 24] | excellent activity |
